This note sets out measurements from patent US8062639B2 (priority 2008, dated 2011).

The subject of one series is conscious rats. Format: in vivo, rat. Conditions: for death after hemorrhage plus infusion / restoration of plasma/blood volume after hemorrhage: 20 ml/kg hemorrhage plus infusion of 2 mg/ml (5 ml/hr) (FIG. 3); for change in plasma volume, infusion alone: infusion of 2 mg/ml (5 ml/hr), no hemorrhage, 8 rats/group (FIG. 3).
The target in another series is T1, soluble dog Na/K ATPase (Canis lupus familiaris, UniProt P50997).
T1 construct: soluble Dog kidney Na/K ATPase; purchased SigmaAldrich; host or cells: dog kidney (the tissue is named only in the general description)
The series is described as follows: Na/K ATPase activity by pNPP conversion. Conditions: rate at 400 nm over 30 min, various concentrations (FIG. 2). Format: biochemical.

For the compound `C[C@]12CC[C@H](O)C[C@H]1CC[C@@H]1[C@@H]2CC[C@]2(C)[C@@H](c3ccc(=O)oc3)CC[C@]12O` [Bufalin], in the series on conscious rats, the “death after hemorrhage plus infusion” value is listed as “leads to death”; the “restoration of plasma/blood volume after hemorrhage” value (shortened to “restoration of plasma/blood volume”) is “prevents restoration”; the “change in plasma volume, infusion alone” value was “no effect on plasma volume”.
For `C[C@]12CC[C@H](O)C[C@@]1(O)CC[C@@H]1[C@@H]2CC[C@]2(C)[C@@H](c3ccc(=O)oc3)C[C@H]3O[C@]132` [marinobufogenin], on soluble dog Na/K ATPase, the “inhibition of Na/K ATPase (conversion of pNPP to pNP)” value was “inhibits Na/K ATPase in a dose-response manner”. The “restoration of plasma/blood volume” value in the series on conscious rats is reported as “did not have this effect”.
In the case of `C[C@@H]1O[C@@H](O[C@H]2C[C@@H](O)[C@]3(CO)[C@H]4[C@H](O)C[C@]5(C)[C@@H](C6=CC(=O)OC6)CC[C@]5(O)[C@@H]4CC[C@]3(O)C2)[C@H](O)[C@H](O)[C@H]1O` [ouabain], at soluble dog Na/K ATPase, the “inhibition of Na/K ATPase (conversion of pNPP to pNP)” value is “inhibits Na/K ATPase in a dose-response manner”. In addition, in the series on conscious rats, the “death after hemorrhage plus infusion” value is “leads to death”; the “restoration of plasma/blood volume” value is “prevents restoration”; the “change in plasma volume, infusion alone” value was “no effect on plasma volume”.
